According to publication PMC3845904 (Chemical research in toxicology, 2009):

How the values were obtained:
human P450 1B1 [1] = target: T1, human P450 1B1 (Homo sapiens, UniProt Q16678); assay: Spectral binding titration; settings: for Reverse Type I spectra ΔAmax/Ks (magnitude of spectral binding) / Reverse Type I spectra ΔAmax: purified P450 1B1 1.0 μM, ND = not detected at 100 μM; for Reverse Type I spectra ΔAmax: means ± SEs
T1 sequence (Q16678 1-543): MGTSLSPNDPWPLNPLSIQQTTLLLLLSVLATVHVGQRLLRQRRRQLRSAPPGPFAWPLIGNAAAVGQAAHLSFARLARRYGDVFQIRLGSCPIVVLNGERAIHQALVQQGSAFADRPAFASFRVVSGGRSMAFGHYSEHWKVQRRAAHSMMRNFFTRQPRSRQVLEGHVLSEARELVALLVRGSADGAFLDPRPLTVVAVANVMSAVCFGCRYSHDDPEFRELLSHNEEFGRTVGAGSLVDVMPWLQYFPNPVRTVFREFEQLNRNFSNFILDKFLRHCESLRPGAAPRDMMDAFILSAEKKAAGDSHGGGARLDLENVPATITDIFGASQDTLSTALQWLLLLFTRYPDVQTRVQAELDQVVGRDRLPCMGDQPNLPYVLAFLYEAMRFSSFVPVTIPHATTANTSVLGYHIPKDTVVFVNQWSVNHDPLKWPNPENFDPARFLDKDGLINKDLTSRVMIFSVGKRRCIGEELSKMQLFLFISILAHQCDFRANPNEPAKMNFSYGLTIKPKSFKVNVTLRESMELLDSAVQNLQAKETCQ

human P450 1B1 [2] = target: T1, human P450 1B1; assay: biochemical

Row | Compound | Reverse Type I spectra ΔAmax/Ks (magnitude of spectral binding) (human P450 1B1 [1]) | Reverse Type I spectra ΔAmax (human P450 1B1 [1]) | Reverse Type I spectra ΔAmax (human P450 1B1 [1]; listed as Flavone) | IC50 (human P450 1B1 [2]) [nM] | Kd (human P450 1B1 [1]) [nM] | spectral interaction with P450 1B1 (in words) (human P450 1B1 [1]; up to 100 μM)
1 | O=c1cc(-c2ccccc2)oc2ccccc12 [flavone, reference compound] | 0.0006 | 0.026 ± 0.002 | 0.026 | – | – | –
2 | c1ccc(-c2ccccc2)cc1 [biphenyl, reference compound] | 0.0003 | 0.037 ± 0.008 | – | 19000 ± 2300 | 140000 ± 19000 | –
3 | C[C@]12CC[C@@H]3c4ccc(O)cc4CC[C@H]3[C@@H]1CC[C@@H]2O [E2, 17β-estradiol, reference compound] | 0.0005 | 0.039 ± 0.007 | – | – | – | –
4 | C#CCOc1ccccc1-c1ccccc1OCC#C [22BDPE, 2,2-biphenyl dipropagyl ether] | 0.0006 | 0.018 ± 0.001 | – | – | – | –
5 | C#Cc1cc2ccccc2c2ccccc12 [9EPh, 9-ethynylphenanthrene] | 0.0197 | 0.071 ± 0.004 | – | 120 ± 10 | – | –
6 | C#Cc1ccc2ccc3cccc4ccc1c2c34 [1EP, 1-ethynylpyrene] | 0.0169 | 0.049 ± 0.005 | – | 36 ± 5 | – | –
7 | c1cc2ccc3cccc4ccc(c1)c2c34 [pyrene, reference compound] | 0.0338 | 0.044 ± 0.001 | – | 25 ± 3 | 1300 ± 100 | –
8 | COc1ccccc1-c1cc(=O)c2ccc(O)c(O)c2o1 [2M78DHF, 2′-methoxy-7,8-dihydroxyflavone] | – | – | – | > 100000 | – | did not show any detectable spectral interaction
9 | O=c1cc(-c2ccccc2)oc2c1ccc1ccccc12 [ANF, α-naphthoflavone, reference compound] | 0.0061 | 0.073 ± 0.007 | – | – | – | –
10 | C#CCOCc1ccc(-c2ccccc2)cc1 [4BMPE, 4-biphenyl methyl propargyl ether] | 0.0055 | 0.071 ± 0.002 | – | – | – | –
11 | C#CCOc1ccccc1-c1ccccc1 [2BPE, 2-biphenyl propargyl ether] | 0.0010 | 0.110 ± 0.009 | – | – | – | –
12 | C#CCOCc1ccccc1-c1ccccc1 [2BMPE, 2-biphenyl methyl propargyl ether] | 0.0009 | 0.130 ± 0.009 | – | – | – | –
13 | COc1ccc(-c2cc(=O)c3c(O)cc(O)cc3o2)cc1OC [34DM57DHF, 3′,4′-dimethoxy-5,7-dihydroxyflavone] | 0.0180 | 0.037 ± 0.002 | – | – | 2000 ± 300 | –
14 | C#CCOc1ccc(-c2ccccc2)cc1 [4BPE, 4-biphenyl propargyl ether] | 0.0007 | 0.056 ± 0.010 | – | – | – | –
15 | COc1cc(C=Cc2ccc(OC)cc2OC)cc(OC)c1 [TMS, 2,4,3′,5′-tetramethoxystilbene, reference compound] | 0.0110 | – | – | – | – | –
16 | C#CCOc1ccc(-c2ccc(OCC#C)cc2)cc1 [44BDPE, 4,4-biphenyl dipropargyl ether] | 0.0013 | 0.031 ± 0.002 | – | – | – | –
